Measurements reported in patent publication US9862684B2, “Modulation of K2P channels” (The Regents of the University of California, priority 2013, dated 2018).
Like-named read-outs stand apart in the source and are kept apart here.

Legend:
TREK-1 [1] = target: T1, TREK-1 (Mus musculus, UniProt P97438); assay: Antagonist compound examples, modulation of TREK-1 (current inhibition), Table 5; type: cell-based, Murine
T1 construct: expressed in transfected cells
T1 sequence (P97438 1-411 isoform P97438-2): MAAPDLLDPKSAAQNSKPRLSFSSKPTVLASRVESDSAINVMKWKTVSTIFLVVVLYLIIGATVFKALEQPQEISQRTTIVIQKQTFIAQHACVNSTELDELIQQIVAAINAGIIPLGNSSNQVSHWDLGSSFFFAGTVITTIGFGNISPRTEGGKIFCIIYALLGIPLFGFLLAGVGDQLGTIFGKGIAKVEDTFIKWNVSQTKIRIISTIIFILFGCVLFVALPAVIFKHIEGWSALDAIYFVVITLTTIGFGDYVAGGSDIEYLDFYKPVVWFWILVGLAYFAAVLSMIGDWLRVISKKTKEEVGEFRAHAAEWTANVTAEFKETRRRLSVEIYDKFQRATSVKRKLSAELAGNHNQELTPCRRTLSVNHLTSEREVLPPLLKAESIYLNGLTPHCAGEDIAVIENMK
Procedure: (§1) Two-electrode voltage clamp recordings were performed from defolliculated stage V-VI Xenopus oocytes 24-48 hours after injection with 0.015-6.0 ng cRNA, using microelectrodes (0.3-3.0 MΩ) filled with 3M KCl. Data was acquired using the GeneClamp 500B (MDS Analytical Technologies) amplifier controlled by the pClamp software (Molecular Devices), and digitized at 1 kHz using Digidata 1332A (MDS Analytical Technologies). Recording solutions (mM): 2K (96 NaCl, 2 KCl, 1.8 CaCl2, 2 MgCl2), 90K (90 KCl, 8 NaCl, 1.8 CaCl2, 2 MgCl2), were buffered 5 mM HEPES pH 7.4. For K2P recordings, currents we elicited by a 1 second long ramp from −150 to +50 mV from a holding potential of −80 mV (2K), or −100 to +50 mV from a holding potential of 0 mV (90K). For KCNQ2 recordings, currents were elicited by a step protocol from −120 to 60 mV, in 20 mV increments, from a holding potential of −80 mV. Patch-clamp recordings from HEK-293T cells were performed using microelectrodes (2-3 MΩ) filled with 1M KCl. Data was acquired using the Axopatch 200B amplifier controlled by pClamp software, and digitized at 1 kHz using Digidata 1332A. Recording solutions (mM): intracellular (145 KCl, 5 EGTA, 3 MgCl2,) extracellular (150 NaCl, 5 KCl, 3 MgCl2, 1 CaCl2) were buffered with 5 mM HEPES pH 7.2 and 7.4, respectively. Currents were elicited by a 1 second long ramp from −150 to +50 mV from a holding potential of −80 mV. Data were fitted with a modified Hill's equation: I=Imin+(Imax−Imin)/(1+10^((Log EC50−Log [C])*H)), where Imax and Imin are maximal and minimal current values, respectively, EC50 is a half-maximal effective concentration of the compound, and H is the Hill coefficient.

K2P2.1 (TREK-1) [2] = target: T2, K2P2.1 (TREK-1) (Mus musculus, UniProt P97438); assay: Two-electrode voltage clamp of Xenopus oocytes expressing K2P2.1 (TREK-1); type: cell-based, Murine; settings: Xenopus oocytes; for effect on K2P2.1 (TREK-1) function / activity (in words): two-electrode voltage clamp
T2 construct: expressed in transfected cells; host or cells: Xenopus oocytes (cRNA injection, pGEMHE/pMO)
T2 sequence (P97438 1-411 isoform P97438-2): T1 sequence (P97438 1-411 isoform P97438-2)
Procedure: (§2) Two-electrode voltage clamp recordings were performed from defolliculated stage V-VI Xenopus oocytes 24-48 hours after injection with 0.015-6.0 ng cRNA, using microelectrodes (0.3-3.0 MΩ) filled with 3M KCl. […] Recording solutions (mM): 2K (96 NaCl, 2 KCl, 1.8 CaCl2, 2 MgCl2), 90K (90 KCl, 8 NaCl, 1.8 CaCl2, 2 MgCl2), were buffered 5 mM HEPES pH 7.4. For K2P recordings, currents we elicited by a 1 second long ramp from −150 to +50 mV from a holding potential of −80 mV (2K), or −100 to +50 mV from a holding potential of 0 mV (90K). For KCNQ2 recordings, currents were elicited by a step protocol from −120 to 60 mV, in 20 mV increments, from a holding potential of −80 mV. […] Currents were elicited by a 1 second long ramp from −150 to +50 mV from a holding potential of −80 mV.

TREK-1 [3] = target: T1, TREK-1; assay: Modulation of TREK-1 by select compounds (agonist activity), Table 3; type: cell-based, Murine
Procedure: as §2

K2P10.1 (TREK-2) = target: T3, K2P10.1 (TREK-2) (Mus musculus, UniProt Q8BUW1); assay: Two-electrode voltage clamp, Xenopus oocytes expressing K2P10.1 (TREK-2); type: cell-based, Murine
T3 construct: expressed in transfected cells; host or cells: Xenopus oocytes
T3 sequence (Q8BUW1 1-535): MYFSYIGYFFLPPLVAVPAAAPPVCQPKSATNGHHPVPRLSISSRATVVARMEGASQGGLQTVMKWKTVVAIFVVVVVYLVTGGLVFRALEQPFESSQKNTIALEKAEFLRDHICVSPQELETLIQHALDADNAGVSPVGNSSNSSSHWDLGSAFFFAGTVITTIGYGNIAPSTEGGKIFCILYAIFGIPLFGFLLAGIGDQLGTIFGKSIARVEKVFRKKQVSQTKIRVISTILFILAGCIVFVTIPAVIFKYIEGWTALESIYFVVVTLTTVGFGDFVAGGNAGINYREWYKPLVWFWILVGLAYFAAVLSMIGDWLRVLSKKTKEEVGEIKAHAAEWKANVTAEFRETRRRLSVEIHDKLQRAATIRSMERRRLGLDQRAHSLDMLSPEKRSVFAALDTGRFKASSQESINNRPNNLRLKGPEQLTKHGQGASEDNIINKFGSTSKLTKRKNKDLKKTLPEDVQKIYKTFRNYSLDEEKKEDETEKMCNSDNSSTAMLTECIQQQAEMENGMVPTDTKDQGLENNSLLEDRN
Procedure: (§3) FIG. 7 ML67-33 is a selective activator of heat- and mechanosensitive K2P channels. a-f, Exemplar I-V curves showing the effect of ML67-33 on a, K2P10.1 (TREK-2), b, K2P4.1 (TRAAK), c, K2P3.1 (TASK-1), d, K2P9.1 (TASK-3), e, K2P5.1 (TASK-2), and f, K2P18.1 (TRESK) measured in Xenopus oocytes in 2 mM [K^+]o pH 7.4. Currents were elicited by a voltage ramp from −150 to 50 mV, from a holding potential of −80 mV. g, Quantification of the effect of ML67-33 on the indicated channels. Data (mean±s.e., n≧6, N≧2) was normalized to basal channel activity and fitted to the Hill equation. […] Error bars indicate s.e., n≧6, N≧2.
(§4) Murine K2P channels were cloned into pGEMHE/pMO {Bagriantsev, 2011}, IRES-GFP (Invitrogen), or pYES2-MET25 (high copy 2μ, URA3) {Minor, 1999} for expression in oocytes, HEK-293T cells, and yeast, respectively, using standard molecular biology procedures, and verified by DNA sequencing.
as §1
(§5) There are six K2P subgroups {Noel, 2011} (FIG. 11). […]

K2P3.1 (TASK-1) = target: T4, K2P3.1 (TASK-1) (Mus musculus, UniProt O35111); assay: Two-electrode voltage clamp, Xenopus oocytes expressing K2P3.1 (TASK-1); type: cell-based, Murine
T4 construct: expressed in transfected cells; host or cells: Xenopus oocytes
T4 sequence (O35111 whole entry): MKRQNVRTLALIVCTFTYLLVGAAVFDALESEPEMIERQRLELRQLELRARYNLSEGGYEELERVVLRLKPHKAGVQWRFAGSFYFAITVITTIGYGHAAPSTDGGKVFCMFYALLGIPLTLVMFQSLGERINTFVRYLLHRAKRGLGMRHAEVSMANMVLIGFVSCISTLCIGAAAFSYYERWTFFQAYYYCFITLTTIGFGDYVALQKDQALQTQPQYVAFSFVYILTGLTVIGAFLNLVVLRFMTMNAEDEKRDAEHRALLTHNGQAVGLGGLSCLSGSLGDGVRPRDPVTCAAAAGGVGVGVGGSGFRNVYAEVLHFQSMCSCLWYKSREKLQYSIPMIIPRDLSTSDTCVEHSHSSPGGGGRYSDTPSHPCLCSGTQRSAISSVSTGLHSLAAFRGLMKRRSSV
Procedure: as §3, §4, §1, §5

Kv7.2 (KCNQ2) = target: T5, Kv7.2 (KCNQ2) (Homo sapiens, UniProt O43526); assay: Two-electrode voltage clamp, Xenopus oocytes expressing Kv7.2 (KCNQ2); type: cell-based
T5 construct: expressed in transfected cells; host or cells: Xenopus oocytes
Procedure: FIG. 12 Exemplar I-V curves showing the effect of 100 μM ML67-33 Kv7.2 (KCNQ2) measured by two-electrode voltage clamp in Xenopus oocytes in 2 mM [K^+]o pH 7.4. Currents were elicited by a step protocol from −120 to 60 mV, in 20 mV increments, from a holding potential of −80 mV.
as §1

Solubility (remarks) = type: physicochemical
K2P2.1 (TREK-1) [4] = target: T6, K2P2.1 (TREK-1) (Homo sapiens, UniProt O95069); settings: cited from earlier work
T6 sequence (O95069 1-426): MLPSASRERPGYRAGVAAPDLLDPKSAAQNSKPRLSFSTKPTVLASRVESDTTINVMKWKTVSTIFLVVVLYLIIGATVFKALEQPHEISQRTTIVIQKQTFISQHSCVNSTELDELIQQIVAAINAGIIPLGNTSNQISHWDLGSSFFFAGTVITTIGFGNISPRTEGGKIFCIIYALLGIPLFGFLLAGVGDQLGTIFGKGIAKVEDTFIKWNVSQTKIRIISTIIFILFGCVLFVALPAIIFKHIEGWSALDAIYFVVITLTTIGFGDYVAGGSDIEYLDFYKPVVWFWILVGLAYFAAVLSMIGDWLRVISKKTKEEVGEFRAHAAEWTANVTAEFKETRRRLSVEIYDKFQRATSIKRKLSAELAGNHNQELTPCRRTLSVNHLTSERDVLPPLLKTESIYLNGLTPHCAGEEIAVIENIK

[5] = 25 μM, 0 mV, read-out: inhibition at 25 μM at 0 mV

Structure (SMILES): Cc1cccc(-n2ncc3c(NCCc4ccccc4)ncnc32)c1 [ML45, 1-(3-methylpyhenyl)-N-(2-phenylethyl)-1H-pyrazolo[3,4-d]pyrimidin-4-amine]
- inhibition at 25 µM (TREK-1 [1]; read-out: current inhibition at 25 μM): ~30%
- effect on K2P2.1 (TREK-1) function / activity (in words) (K2P2.1 (TREK-1) [2]): inhibitors

Structure (SMILES): c1ccc(CCNc2ncnc3c2cnn3-c2ccccc2)cc1 [ML45-1, 1-phenyl-N-(2-phenylethyl)-1H-pyrazolo[3,4-d]pyrimidin-4-amine]
- inhibition at 25 µM (TREK-1 [1]; [5]): 22.5%

Structure (SMILES): Cc1ccc(-n2ncc3c(NCCc4ccccc4)ncnc32)cc1 [ML45-2, 1-(4-methylphenyl)-N-(2-phenylethyl)-1H-pyrazolo[3,4-d]pyrimidin-4-amine]
- inhibition at 25 µM (TREK-1 [1]; [5]): 25.2%

Structure (SMILES): Cc1ccc(-n2ncc3c(NCCc4ccccc4)ncnc32)cc1C [ML45-3, 1-(3,4-dimethylphenyl)-N-(2-phenylethyl)-1H-pyrazolo[3,4-d]pyrimidin-4-amine]
- inhibition at 25 µM (TREK-1 [1]; [5]): 31.9%

Structure (SMILES): Clc1ccc(-n2ncc3c(NCCc4ccccc4)ncnc32)cc1 [ML45-4, 1-(4-chlorophenyl)-N-(2-phenylethyl)-1H-pyrazolo[3,4-d]pyrimidin-4-amine]
- inhibition at 25 µM (TREK-1 [1]; [5]): 20.7%

Structure (SMILES): Cc1cccc(-n2ncc3c(NCCc4ccc(S(N)(=O)=O)cc4)ncnc32)c1 [ML45-5, 4-(2-{[1-(3-methylphenyl)-1H-pyrazolo[3,4-d]pyrimidin-4-yl]amino}ethyl)benzene-1-sulfonamide]
- inhibition at 25 µM (TREK-1 [1]; [5]): 2.7%

Structure (SMILES): O=C(O)CCn1c2ccc(Cl)cc2c2cc(Cl)ccc21 [ML67, 3-(3,6-dichlorocarbazol-9-yl)propanoic acid]
- EC50 (TREK-1 [3]; agonist activity on TREK-1): 213 µM
- effect on K2P2.1 (TREK-1) function / activity (in words) (K2P2.1 (TREK-1) [2]): activated the channel
- EC50 (K2P10.1 (TREK-2); Xenopus oocytes, 2 mM [K+]o pH 7.4): > 250 µM
- Emax (fold) at 500 μM (K2P10.1 (TREK-2); at 500 μM): 10.1 ± 1.1 at 500 μM fold
- functional effect / activation (in words) (K2P3.1 (TASK-1); ML67-33 applied at 100 μM, ML67 concentration not stated): not
- Emax (fold) at 500 μM (K2P3.1 (TASK-1); at 500 μM): 1.2 ± 0.0 at 500 μM fold
- effect on Kv7.2 (KCNQ2) (in words) (Kv7.2 (KCNQ2); ML67-33 at 100 μM, ML67 concentration not stated): no effect
- Emax (fold) at 500 μM (Kv7.2 (KCNQ2); at 500 μM): 1.8 ± 0.0 at 500 μM fold

Structure (SMILES): O=C(O)/C=C/n1c2ccc(Cl)cc2c2cc(Cl)ccc21 [ML67-16, (E)-3-(3,6-dichlorocarbazol-9-yl)prop-2-enoic acid]
- solubility (in words) (Solubility (remarks)): insoluble

Structure (SMILES): O=C(CCn1c2ccc(Cl)cc2c2cc(Cl)ccc21)NO [ML67-19, 3-(3,6-dichlorocarbazol-9-yl)-N-hydroxy-propanamide]
- solubility (in words) (Solubility (remarks)): insoluble

Structure (SMILES): CC1(C)c2cc(Br)ccc2N(CCc2nnn[nH]2)c2ccc(Br)cc21 [ML67-137, 2,7-dibromo-9,9-dimethyl-10-[2-(1H-tetrazol-5-yl)ethyl]acridine]
- % activity at 10 μM (TREK-1 [3]; 10 μM): 80%
- % activity at 50 μM (TREK-1 [3]; 50 μM): 100%
- Emax (fold) at 100 μM (K2P2.1 (TREK-1) [2]; at 100 μM (FIG. 4, 7 legends), marked ** in Table 1, footnote not given): 9.2 ± 1.4** fold
- effect on K2P2.1 (TREK-1) function / activity (in words) (K2P2.1 (TREK-1) [2]): did not significantly improve activity

Structure (SMILES): CCCCC/C=C\C/C=C\C/C=C\C/C=C\CCCC(=O)O [arachidonic acid]
- activation of K2P2.1 (TREK-1) (K2P2.1 (TREK-1) [4]; at 10-20 μM): 3-12 fold

Structure (SMILES): ClC(Cl)Cl [chloroform]
- activation of K2P2.1 (TREK-1) (K2P2.1 (TREK-1) [4]; at 1.6 mM): 5.5 fold
